Patent US7109186B2 (Bristol-Myers Squibb Company, priority 2002, dated 2006)

Experiments:
HIV-integrase = biological target: T1, HIV-integrase (Human immunodeficiency virus type 1 group M subtype B, UniProt P04585); assay: HIV integrase SPA integration assay (biotin-labeled substrate DNA on streptavidin SPA beads, P33-labeled target DNA); type: biochemical; settings: percent inhibition of HIV-integrase in the presence of 20 μM of compound
T1 construct: 0.26 ng of recombinant integrase was incubated with the beads for 90 min at 37 C
How it was run: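 Recombinant integrase (0.26 ng) was preloaded 90 min at 37 C onto biotin-substrate DNA (5 pmole) bound to streptavidin SPA beads. Unbound enzyme was washed off before inhibitor and 0.1 fmol P33-labeled target DNA were added. After the EDTA stop (10 mM final), integration was measured as SPA counts (CPM).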

CON(CCc1ccc(F)cc1)C(=O)C1=C(O)C(=O)N(C)C1 [Compound 52, 4-Hydroxy-1-methyl-5-oxo-2,5-dihydro-1H-pyrrole-3-carboxylic acid [2-(4-fluoro-phenyl)-ethyl]-methoxy-amide]
melting point: 157 °C (dec.)
inhibition at 20 µM (HIV-integrase): 86%

CON(Cc1ccccc1C)C(=O)C1=C(O)C(=O)N(C)C1 [Compound 56, 4-Hydroxy-1-methyl-5-oxo-2,5-dihydro-1H-pyrrole-3-carboxylic acid methoxy-(2-methyl-benzyl)-amide]
melting point: 153 to 154 °C
inhibition at 20 µM (HIV-integrase): 88%

CN1CC(C(=O)N(C)C(Cc2ccc(Cl)cc2)Cc2ccc(Cl)cc2)=C(O)C1=O [Compound 75, 4-Hydroxy-1-methyl-5-oxo-2,5-dihydro-1H-pyrrole-3-carboxylic acid [1-(4-chloro-benzyl)-2-(4-chloro-phenyl)-ethyl]-methyl-amide]
melting point: 152 to 154 °C
inhibition at 20 µM (HIV-integrase): 96.5%

CN1CC(C(=O)N(Cc2ccc(F)cc2)OCC(=O)O)=C(O)C1=O [Compound 71, [(4-Fluoro-benzyl)-(4-hydroxy-1-methyl-5-oxo-2,5-dihydro-1H-pyrrole-3-carbonyl)-aminooxy]-acetic acid]
melting point: 147 to 150 °C
inhibition at 20 µM (HIV-integrase): 99.9%

CN(Cc1ccc(Cl)c(Cl)c1)C(=O)C1=C(O)C(=O)N(C2CC2)C1 [Compound 14, 1-Cyclopropyl-4-hydroxy-5-oxo-2,5-dihydro-1H-pyrrole-3-carboxylic acid (3,4-dichloro-benzyl)-methyl-amide]
melting point: 163 to 164 °C
inhibition at 20 µM (HIV-integrase): 99.7%

CON(Cc1cccc(F)c1)C(=O)C1=C(O)C(=O)N(C)C1 [Compound 49, 4-Hydroxy-1-methyl-5-oxo-2,5-dihydro-1H-pyrrole-3-carboxylic acid (3-fluoro-benzyl)-methoxy-amide]
melting point: 119 °C (dec.)
inhibition at 20 µM (HIV-integrase): 98.5%

CON(Cc1ccc(NC(C)=O)cc1)C(=O)C1=C(O)C(=O)N(C)C1 [Compound 63, 4-Hydroxy-1-methyl-5-oxo-2,5-dihydro-1H-pyrrole-3-carboxylic acid (4-acetylamino-benzyl)-methoxy-amide]
melting point: 110 °C
inhibition at 20 µM (HIV-integrase): 12%

CON(Cc1ccc(Cl)cc1)C(=O)C1=C(O)C(=O)N(C)C1 [Compound 51, 4-Hydroxy-1-methyl-5-oxo-2,5-dihydro-1H-pyrrole-3-carboxylic acid (4-chloro-benzyl)-methoxy-amide]
melting point: 165 °C (dec.)
inhibition at 20 µM (HIV-integrase): 99.9%

CON(Cc1ccc(C#N)cc1)C(=O)C1=C(O)C(=O)N(C)C1 [Compound 62, 4-Hydroxy-1-methyl-5-oxo-2,5-dihydro-1H-pyrrole-3-carboxylic acid (4-cyano-benzyl)-methoxy-amide]
melting point: 161 °C (dec.)
inhibition at 20 µM (HIV-integrase): 97.7%

CN1CC(C(=O)N(Cc2ccc(F)cc2)OCC(=O)OC(C)(C)C)=C(O)C1=O [Compound 70]
melting point: 128 to 130 °C
inhibition at 20 µM (HIV-integrase): 99.8%
